Assays:
[1] = Standard sweetness test, panelists rate sweetness (Brix) of solutions in water; design: species or system human; details: for Brix (average): average of all panelists
Procedure: (§1) A standard sweetness test method was employed. Briefly, training sample solutions made of sucrose in water at 1-5% concentration (Brix) at 1% increments were prepared. Reb-E test samples were made of Reb-E in water at 20-60 ppm (parts per million). Panelists were trained to recognize and differentiate between each training solution. Three test solutions of known sucrose concentrations were given to panelists to ensure equal training and to establish a baseline.
(§2) Test solutions were randomized using a random number generator. Two sets of tests were generated for each panelist. Saltine crackers were provided along with water for wash out between test solutions. Each panelist rated each of the solutions according to sweetness (in Brix) and sourness (yes or no). The intensity of each attribute was also collected.

[2] = Sourness test, panelists detect presence of sourness by yes or no rating; design: species or system human
Procedure: as §1, §2
The ability of Reb-E to overcome sourness was also measured, and compared to sucrose. Panelists were asked to detect the presence of sourness by a yes or no rating.

[3] = Reb-E 20 PPM + 0.6% citric acid
[4] = Reb-E 40 PPM + 0.6% citric acid
[5] = Reb-E 50 PPM + 0.6% citric acid
[6] = Reb-E 60 PPM + 0.6% citric acid
[7] = sucrose 10 ×1000 PPM (1%) + 0.6% citric acid
[8] = sucrose 20 ×1000 PPM (2%) + 0.6% citric acid
[9] = sucrose 30 ×1000 PPM (3%) + 0.6% citric acid
[10] = sucrose 40 ×1000 PPM (4%) + 0.6% citric acid

With `C=C1C[C@@]23CCC4[C@](C)(C(=O)OC5OC(CO)C(O)C(O)C5OC5OC(CO)C(O)C(O)C5O)CCC[C@@]4(C)[C@@H]2CCC1(OC1OC(CO)C(O)C(O)C1OC1OC(CO)C(O)C(O)C1O)C3` (stereo partly drawn) [Reb-E, 13-[(2-O-β-D-glucopyranosyl-β-D-glucopyranosyl)oxy] ent-kaur-16-en-19-oic acid-(2-O-β-D-glucopyranosyl-β-D-glucopyranosyl) ester] the “Correlation between sweetness and concentration (FIG. 1)” value ([1]; Reb-E 20-60 ppm) was “near linear correlation”, the “Brix (average)” value ([1]; Reb-E 20 PPM in water + 0.6% citric acid) was 1.2 Brix and the “Brix (average)” value ([1]; Reb-E 40 PPM in water + 0.6% citric acid) was 2.1 Brix. For the same molecule, the “Brix (average)” value ([1]; Reb-E 50 PPM in water + 0.6% citric acid) was 2.2 Brix, the “Brix (average)” value ([1]; Reb-E 60 PPM in water + 0.6% citric acid) was 2.6 Brix and the “Sourness detected: No (number of ratings)” value (“Sourness detected: No” below) [2, 3] was 2. For the same molecule, the “Sourness detected: Yes (number of ratings)” value (“Sourness detected: Yes” below) [2, 3] was 10, the “Sourness detected: No” value [2, 4] was 2 and the “Sourness detected: Yes” value [2, 4] was 4. For the same molecule, the “Sourness detected: No” value [2, 5] was 1, the “Sourness detected: Yes” value [2, 5] was 11 and the “Sourness detected: No” value [2, 6] was 0. For the same molecule, the “Sourness detected: Yes” value [2, 6] was 6 and the “Effectiveness in covering the sourness compared to sucrose solutions” value ([2]; within the tested range) was “not as effective in covering the sourness as compared to sucrose solutions”.
With `OC[C@H]1O[C@@](CO)(O[C@H]2O[C@H](CO)[C@@H](O)[C@H](O)[C@H]2O)[C@@H](O)[C@@H]1O` [Sucrose, sucrose, reference compound] the “Brix (average)” value ([1]; sucrose 10 ×1000 PPM (1%) in water + 0.6% citric acid) was 1.3 Brix, the “Brix (average)” value ([1]; sucrose 20 ×1000 PPM (2%) in water + 0.6% citric acid) was 2.6 Brix and the “Brix (average)” value ([1]; sucrose 30 ×1000 PPM (3%) in water + 0.6% citric acid) was 3.4 Brix. For the same molecule, the “Brix (average)” value ([1]; sucrose 40 ×1000 PPM (4%) in water + 0.6% citric acid) was 5.2 Brix, the “Sourness detected: No” value [2, 7] was 4 and the “Sourness detected: Yes” value [2, 7] was 8. The “Sourness detected: No” value [2, 8] was 2, the “Sourness detected: Yes” value [2, 8] was 4 and the “Sourness detected: No” value [2, 9] was 5. The “Sourness detected: Yes” value [2, 9] was 1, the “Sourness detected: No” value [2, 10] was 2 and the “Sourness detected: Yes” value [2, 10] was 4.
